How the values were obtained:
[1] = Embryonic (embryo-fetal) development study in rabbits; format: in vivo; conditions: for NOAEL: female, po, pregnant rabbits, oral gavage once daily, Day 6 to Day 19 of gestation
Protocol: However, the incidence of some foetal structural variations (= mild foetal structural abnormalities) was increased at the mid dose of 20 mg/kg and higher. […] Table 2: Preclinical safety margins
The control received the vehicle in the same manner. All F0-females were sacrificed on Day 29 of gestation and the following parameters were recorded after removal and examination of the ovaries and the uteri: Number of corpora lutea, number and state of implantation sites (i.e, live foetus, early and late interauterine deaths, dead fetuses). […] Dead fetuses were classified as those which appeared to have died shortly before necropsy. Live foetuses were euthanised by an intraperitoneal injection of sodium pentobarbitone. Individual foetal and placental weights were recorded and foetuses were examined for external abnormalities and sexed by external observation. All fetuses in each litter were examined for visceral abnormalities by microdissection, eviscerated and the carcasses processed and Alizarin Red S stained for skeletal examination. The intact heads of approximately one half of the fetuses in each litter were removed after the fetuses were killed and were processed in Bouin's fluid. The heads were then examined by the Wilson sectioning method. Foetal abnormalities were classified as malformations (rare and/or potentially lethal defects) and variations (commonly occurring non-lethal abnormalities). […] These variations were related to sternebra. […] This finding was not present in the background data. […] Thus, in summary, the NOAEL for maternal toxicity is considered to be 70 mg/kg. The NOAEL for developmental toxicity is regarded as 5 mg/kg due to the occurrence of foetal findings classified as variations at the dose of 20 mg/kg and higher.

[2] = Single dose study in healthy postmenopausal women (safety, plasma bilirubin); format: in vivo
Protocol: Single center, randomized, placebo-controlled, double-blind and parallel group study. For the 30 mg group only, a one sequence cross-over design was applied to estimate the relative bioavailability of a liquid versus a solid formulation.
In this study the AKR1C3 inhibitor was administered as a single oral dose. Eight volunteers per treatment group were included. Two volunteers per treatment group were allocated to placebo in a randomized, double-blind fashion in order to assess non-drug related factors in the safety evaluation. To ensure that 8 subjects were treated, during the pre-dose phase at least 1 backup subject had to undergo all necessary measurements to compensate for the risk that a person had to be excluded immediately before dosing due to safety concerns.
Forty-six (46, 76.7%) out of 60 treated subjects were treated with the AKR1C3 inhibitor (6 subjects per group at dose levels 1 mg, 3 mg, 10 mg, 30 mg, 120 mg, 240 mg; 5 subjects per group at 60 mg and 90 mg) and 14 subjects (23.3%) received placebo (2 subjects each in the 1 mg, 3 mg, 30 mg, 60 mg, 120 mg and 240 mg groups, and 1 subject each in the 10 mg and 90 mg groups). All 60 treated subjects (100%) completed the study and were included in the statistical analyses of safety (SAF: N=60). One out of 60 treated subjects was not valid for the analysis of pharmacodynamics due to vomiting before two times tmax (PDS: N=59). This same subject was also excluded from the PK analysis of the 46 verum-treated subjects, and all 14 placebo-treated subjects were not valid for the analysis of PK (PKS: N=45).
Bilirubin was measured employing a standard laboratory kit.

[3] = cited from earlier work
[4] = Multiple dose study Part A in healthy postmenopausal women, 14 days (safety, plasma bilirubin); conditions: for Plasma bilirubin concentrations above the upper limit of normal (subjects): tablets
Protocol: (§1) Plasma bilirubin levels were assessed prior to dosing and 1, 2, 6 and 14 days after drug administration. […] 30 mg (once daily), 90 mg (once daily) or 60 mg (twice daily) per 70 kg body weight for women of the AKR1C3 inhibitor over 14 days. Plasma bilirubin levels were assessed prior to dosing and 1, 2, 6, 10, 13, 15, 19 days after drug administration and at final examination. […] Plasma bilirubin levels were assessed prior to dosing and on cycle days 8, 12, 15, 22, 29, 33 after start of drug administration and at the follow up examinations.
(§2) The study was performed as an ascending dose study after multiple oral doses of the AKR1C3 inhibitor or placebo in 27 healthy postmenopausal (PM) women, aged 45 to 68 years (Part A) and 18 healthy tubal-ligated (TL) women, aged 18 to 48 (Part B).
The study consists of two parts: Part A was performed in healthy postmenopausal women (randomized within each dose level and placebo-controlled), Part B in healthy premenopausal women with tubal-ligation (open label; intraindividual comparison to pre-treatment cycle) with 28 days treatment (i.e. approx. one menstrual cycle). The safety of 30 mg once daily, 90 mg once daily, 60 mg twice/day of the AKR1C3 inhibitor given over 14 days was assessed in postmenopausal women prior to exposing premenopausal women to the corresponding doses of 60 mg once daily, 60 mg twice/day over 28 days. • Part A and Part B were further divided into different periods: • Part A: screening, pre-dose, treatment period 1 with single dose administration, treatment period 2 with multiple dose administration on 14 consecutive days and follow-up. A wash-out period between treatment period 1 (administration day) and treatment period 2 (first administration) of at least 14 days and not more than 28 days was necessary. Women received the study medication in a fasted state in period 1 (single dose) as well as on day 14 of period 2 (multiple dose). On day 1 of period 2 the study medication was given after breakfast to evaluate the food effect. Three increasing dosages of the AKR1C3 inhibitor were tested: 30 mg once daily, 90 mg once daily and 60 mg twice daily. In addition, a lower dose 3 mg once daily was evaluated. Nine volunteers per dose level were included into the study; thereof, n = 7 women were randomly assigned to treatment with the respective dose and n = 2 to placebo treatment. The study drug was administered in a double-blind manner within one dose level, i.e. all volunteers of that dose level received the same number of tablets identical in appearance. • Part B: screening, pre-dose (pre-treatment cycle), treatment period with multiple dose administration on 28 consecutive days and follow-up. In the pre-dose period, hormonal changes during a menstrual cycle including evidence of ovulation were evaluated. Study drug administration started on day 4 of the menstrual bleeding after end of the pre-treatment cycle, the study drug was then be taken on 28 consecutive days, independent of further menstrual bleedings. The pre-treatment cycle can be separated by up to 2 menstrual cycles from the treatment period.
Total bilirubin concentrations were monitored throughout this study.Bilirubin was measured employing a standard laboratory kit. The tests were performed according to the instructions as provided by the manufacturer (Beckman coulter kit AU680).

[5] = Embryonic (embryo-fetal) development study in rats; format: in vivo; conditions: for NOAEL: female, rat, in vivo, po, pregnant rats, oral gavage once daily, Day 6 to Day 17 of gestation
Protocol: The NOAEL for developmental toxicity in rats is consequently the mid dose of 17 mg/kg.
The control received the vehicle in the same manner. All F0-females were sacrificed on Day 21 of gestation and the following parameters were recorded after removal and examination of the ovaries and the uteri: Number of corpora lutea, number and state of implantation sites (i.e, live foetus, early and late interauterine deaths, dead fetuses). […] Dead fetuses were classified as those which appeared to have died shortly before necropsy. Live foetuses were euthanised by a subcutaneous injection of sodium pentobarbitone. Individual foetal and placental weights were recorded and foetuses were examined for external abnormalities and sexed by external observation. Afterwards, approximately one half of the foetuses in each litter were examined for visceral abnormalities by microdissection. They were then eviscerated and the carcasses processed and Alizarin Red S stained for skeletal examination. The remaining foetuses were fixed in Bouin's fluid and examined for visceral abnormalities by the Wilson sectioning method. Foetal abnormalities were classified as malformations (rare and/or potentially lethal defects) and variations (commonly occurring non-lethal abnormalities).

[6] = Multiple dose study Part B in healthy premenopausal tubal-ligated women, 28 days (safety, plasma bilirubin); format: in vivo; conditions: for Plasma bilirubin concentrations above the upper limit of normal (subjects): tablets
Protocol: as §1, §2
The study consists of two parts: Part A was performed in healthy postmenopausal women (randomized within each dose level and placebo-controlled), Part B in healthy premenopausal women with tubal-ligation (open label; intraindividual comparison to pre-treatment cycle) with 28 days treatment (i.e. approx. one menstrual cycle). The safety of 30 mg once daily, 90 mg once daily, 60 mg twice/day of the AKR1C3 inhibitor given over 14 days was assessed in postmenopausal women prior to exposing premenopausal women to the corresponding doses of 60 mg once daily, 60 mg twice/day over 28 days. • Part A and Part B were further divided into different periods: • Part A: screening, pre-dose, treatment period 1 with single dose administration, treatment period 2 with multiple dose administration on 14 consecutive days and follow-up. […] Three increasing dosages of the AKR1C3 inhibitor were tested: 30 mg once daily, 90 mg once daily and 60 mg twice daily. In addition, a lower dose 3 mg once daily was evaluated. Nine volunteers per dose level were included into the study; thereof, n = 7 women were randomly assigned to treatment with the respective dose and n = 2 to placebo treatment. The study drug was administered in a double-blind manner within one dose level, i.e. all volunteers of that dose level received the same number of tablets identical in appearance. • Part B: screening, pre-dose (pre-treatment cycle), treatment period with multiple dose administration on 28 consecutive days and follow-up.

[7] = Risk assessment on reproductive and developmental toxicities (exposure ratios animal:human) combined with clinical studies
Description: According to that regulatory guidance, there is increased concern for reproductive or developmental toxicity in humans for relative exposure ratios (animal: human) that are <10 and decreased concern for exposure ratios >25.

[8] = biological target: T1, AKR1C3 (Homo sapiens, UniProt P42330); conditions: as disclosed in WO 2013045407; cited from earlier work
T1 sequence (P42330 1-323): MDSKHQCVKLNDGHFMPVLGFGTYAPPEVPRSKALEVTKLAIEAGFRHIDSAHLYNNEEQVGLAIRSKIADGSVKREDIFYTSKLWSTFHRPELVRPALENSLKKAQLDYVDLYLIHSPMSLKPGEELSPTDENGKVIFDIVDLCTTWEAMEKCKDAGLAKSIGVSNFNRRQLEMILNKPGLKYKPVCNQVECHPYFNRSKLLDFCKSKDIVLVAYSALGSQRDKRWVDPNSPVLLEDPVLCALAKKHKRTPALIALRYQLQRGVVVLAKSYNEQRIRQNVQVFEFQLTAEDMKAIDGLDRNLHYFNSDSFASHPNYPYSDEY

With `CN(CCC(=O)O)C(=O)c1ccc2c(c1)CC[C@@H]1[C@@H]2CC[C@]2(C)C(c3cncc(F)c3)=CC[C@@H]12` [AKR1C3 inhibitor, N-{[17-(5-Fluoropyridin-3-yl)estra-1,3,5(10),16-tetraen-3-yl]carbonyl}-N-methyl-β-alanine] the NOAEL ([1]; rabbit, in vivo, doses 0, 5, 20, 70 mg/kg, read-out: NOAEL for dev. toxicity) was 5 mg/kg, the NOAEL ([1]; rabbit, in vivo, read-out: NOAEL for maternal toxicity) was 70 mg/kg and the “occurrence of sternebra with increased ossification” value ([1]; rabbit, in vivo, 5 mg/kg) was “very low incidence”. The “incidence of some foetal structural variations” value ([1]; rabbit, in vivo, 20 mg/kg) was “increased”, the “incidence of a discoloured thymus in fetuses” value ([1]; rabbit, in vivo, 70 mg/kg) was “slightly higher incidence” and the “higher systemic exposure (AUCunbound) at NOAEL than expected clinical exposure” value (“higher systemic exposure (AUCunbound)” below) ([1]; rabbits at 5 mg/kg vs once daily 3 mg/day in humans) was about 17 fold. For the same compound, the “higher systemic exposure (AUCunbound)” value ([1]; rabbits at 5 mg/kg vs twice daily 60 mg/day in humans) was “approximately 0.3 fold”, the “drug-related TEAE headache” value ([2]; female, human, in vivo) was 21.7% and the “drug-related TEAE nausea” value ([2]; female, human, in vivo) was 15.2%. For the same compound, the “drug-related TEAE vomiting” value ([2]; female, human, in vivo) was 13.0%, the “Serious treatment-emergent adverse events (TEAEs)” value ([2]; in vivo) was “not reported” and the indication for hemolysis ([2]; in vivo) was “no indication for hemolysis”. For the same compound, the “signs of drug-induced liver injury (DILI)” value ([2]; in vivo) was “no signs of drug-induced liver injury (DILI) have been detected”, the maximum tolerated dose ([2]; single dose) was 120 mg and the “well tolerated up to a single dose” value ([2]; single oral dose) was at most 120 mg. For the same compound, the lesion load ([3]; 0.2 mg/kg and 0.8 mg/kg, given daily, compared to the vehicle group) was “reduction in lesion load”, the “lesions on the bladder and on/in the uterus” value ([3]; 30 mg/kg daily, compared with the vehicle group (WO 2013045407)) was “hardly any lesions could be found” and the “Plasma bilirubin concentrations above the upper limit of normal (subjects)” value ([4]; 60 mg twice daily over 14 days) was 5 of 7. For the same compound, the “changes in plasma bilirubin” value ([4]; 60 mg twice daily, 14 days) was “increase in plasma bilirubin was observed in a significant fraction of subjects”, the “Plasma bilirubin concentrations above the upper limit of normal (subjects)” value ([4]; 90 mg once daily over 14 days) was 1 of 7 and the “changes in plasma bilirubin” value ([4]; 90 mg once daily, postmenopausal women, 2 weeks of treatment) was “increases in plasma bilirubin were observed in a small fraction of subjects”. The “well tolerated up to a dose” value ([4]; multiple dosing, women) was at most 60 mg twice daily, the “changes in plasma bilirubin” value ([4]; up to 30 mg once daily / 70 kg body weight, single and repeat dosing up to 14 days) was “no changes in plasma bilirubin were observed” and the “incidence of fetal visceral and skeletal variations” value ([5]; 60 mg/kg, compared to the concurrent or historical control) was “higher incidence”. It also gave an NOAEL ([5]; doses 0, 5, 17, 60 mg/kg, read-out: NOAEL for dev. toxicity) of 17 mg/kg, an NOAEL ([5]; read-out: NOAEL for maternal toxicity) of 60 mg/kg and an incidence of malformations ([5]; high dose 60 mg/kg, from eight dams, out of a total of 198 foetuses (control 1 foetus out of 211)) of 12 foetuses. The “higher systemic exposure (AUCunbound)” value ([5]; rats at 17 mg/kg vs once daily 3 mg/day in humans) was about 122 fold, the “higher systemic exposure (AUCunbound)” value ([5]; rats at 17 mg/kg vs once daily 30 mg/day in humans) was about 15 fold and the “higher systemic exposure (AUCunbound)” value ([5]; rats at 17 mg/kg vs twice daily 60 mg/day in humans) was “approximately 2 fold”. For the same compound, the “Plasma bilirubin concentrations above the upper limit of normal (subjects)” value ([6]; 60 mg once daily over 28 days) was 1 of 9, the “changes in plasma bilirubin” value ([6]; 60 mg once daily, premenopausal women, 4 weeks of treatment) was “increases in plasma bilirubin were observed in a small fraction of subjects” and the “Plasma bilirubin concentrations above the upper limit of normal (subjects)” value ([6]; 60 mg twice daily over 28 days) was 2 of 9. The “changes in plasma bilirubin” value ([6]; 60 mg twice daily, 28 days) was “increase in plasma bilirubin was observed in a significant fraction of subjects”, the “dose of decreased concern for reproductive or developmental toxicity in humans” value [7] was at most 3 mg daily dose and the “dose of increased concern for reproductive or developmental toxicity in humans” value [7] was over 15 mg daily dose. For the same compound, the AKR1C3 inhibition [8] was “potent”.

From patent publication EP3269373A1, “LOW-DOSED ORAL DOSAGE FORM OF AN AKR1C3 INHIBITOR FOR TREATMENT OF DISEASES” (Bayer Pharma Aktiengesellschaft, priority 2016, dated 2018)
